Reference: article PMC12431657, “Discovery and mechanistic insights of dibenzoylmethane as a broad spectrum inhibitor of coronavirus” (PLOS Pathogens, 2025)
pEC50: −log10 of the molar value. Where “and” joins values, the source holds several entries; their conditions need not be identical. Equal values may be shown once. Read-outs that look alike come from different tables or passages of the source.

Columns and labels:
HCoV-NL63 = assay: Antiviral activity in vitro, HCoV-NL63; format: cell-based; conditions: Human coronavirus NL63, read-out: EC50 HCoV-NL63
[1] = Metabolic stability in mouse liver microsomes; format: in vitro ADME; conditions: average, read-out: T1/2 of metabolism
Procedure: Thus, a pharmacokinetic study was performed for DBM in Sprague-Dawley (SD) rats. Following oral administration of menstruum or DBM at 200 mpk, blood samples from the rats were collected at 2 min, 5 min, 15 min, 30 min, 1 h, 2 h, 4 h, 8 h, and 24 h posttreatment. The concentration of DBM in the plasma was determined by liquid chromatography with tandem mass spectrometry (LC-MS/MS). The minimum effective concentration (MEC) line in the graph represents the EC95 value of DBM (Fig 3C). […] To analyse the metabolic stability of DBM, we incubated human and mouse liver microsomes with DBM. The T1/2 of metabolism was an average of 13.92 min in human liver microsomes and 4.84 min in mouse liver microsomes.

HCoV-OC43 [2] = assay: Viral entry and internalization assay; format: cell-based; conditions: confocal microscopy
Procedure: To obtain further insight into the stage at which DBM inhibits the replication of HCoV-OC43 and other HCoVs, RD cells were incubated with compounds, including DBM, remdesivir (RDV), and chloroquine (CQ), at different stages of viral infection. Viral RNA from the supernatant was extracted and quantitatively analysed via qRT-PCR. […] For the viral binding assay, cells were cultured in the presence or absence of DBM at different concentrations for 1 hour before being infected with HCoV-OC43 at an MOI of 50, and then were placed on ice for 2 hours for the viral particles to bind to the membrane of the host cells, followed by washing with PBS. […] In addition to binding to receptors from host cells, the spike proteins of HCoV-OC43 could also trigger membrane fusion when HCoV-OC43 spike plasmid-transfected 293T cells were seeded together with RD cells as target cells, and the addition of DBM had no effect on this process (S5C Fig). […] To determine whether DBM influences viral release, we quantified viral RNA both intracellularly and in the supernatant.
The cells were seeded at a low density onto 35 mm glass bottom dishes with 10 mm microwells (Cellvis) and incubated overnight at 37 °C. […] The number of intracellular virus particles was quantified with ImageJ software.

HCoV-OC43 [3] = assay: Viral release (intracellular versus supernatant viral RNA); format: cell-based
Procedure: To obtain further insight into the stage at which DBM inhibits the replication of HCoV-OC43 and other HCoVs, RD cells were incubated with compounds, including DBM, remdesivir (RDV), and chloroquine (CQ), at different stages of viral infection. Viral RNA from the supernatant was extracted and quantitatively analysed via qRT-PCR. […] For the viral binding assay, cells were cultured in the presence or absence of DBM at different concentrations for 1 hour before being infected with HCoV-OC43 at an MOI of 50, and then were placed on ice for 2 hours for the viral particles to bind to the membrane of the host cells, followed by washing with PBS. […] To determine whether DBM influences viral release, we quantified viral RNA both intracellularly and in the supernatant.
A) Efficacy of DBM, remdesivir (RDV), and chloroquine (CQ) in inhibiting virus replication at different stages of administration. […] C) Fluorescence images of cell-cell fusion induced by the transient expression of HCoV-OC43 spike proteins and eGFP (green) in RD cells. […] D) Confocal fluorescence microscopy images showing HCoV-OC43 internalization. E) Quantification of intracellular viral particles per cell, based on images obtained from confocal fluorescence microscopy. […] Data were statistically analysed with Student’s T test. *: p ≤ 0.05, **: p ≤ 0.01, ***: p ≤ 0.001, ****: p ≤ 0.0001; ns, not significant. […]

Huh-7 cells = format: cell-based
HCoV-OC43 [4] = assay: microbe, parasite or virus in culture; format: cell-based

Compound: O=C(CC(=O)c1ccccc1)c1ccccc1 [DBM, dibenzoylmethane]
- pEC50 (HCoV-NL63): 4.93
- half-life [1]: 4.84 min
- viral internalisation (HCoV-OC43 [2]): did not interfere
- proportion of viral RNAs released into the supernatant versus controls (HCoV-OC43 [3]): No significant difference
- Proportion of release of HCoV-OC43 RNA (HCoV-OC43 [3]; DBM-treated samples, replicates): 0.9 and 1.5 and 5.8
- treated/untreated (Huh-7 cells): 1.279 and 1.276 and 1.31 and 1.204 and 1.484
- resistance of the virus after consecutive passages (HCoV-OC43 [4]; 17 consecutive passages in the presence of DBM): did not develop significant resistance
- pEC50 (HCoV-OC43 [4]; Betacoronavirus 1, OC43, read-out: EC50 of DBM against HCoV-OC43 passaged with DBM): 6.07
- pEC50 (HCoV-OC43 [4]; Betacoronavirus 1, OC43, read-out: EC50 of DBM against HCoV-OC43 passaged with DMSO): 6.24
- viral inhibition (HCoV-OC43 [4]; DBM (virus passaged with DBM), concentration 1.7): 93.4 and 85.2
- viral inhibition (HCoV-OC43 [4]; DBM (virus passaged with DBM), concentration 5.0): 99.5
- viral inhibition (HCoV-OC43 [4]; column head DMSO (virus passaged with DMSO), concentration 5.0): 100.0
